Among the data in patent US20170044104A1, “NEW PESTICIDAL COMPOUNDS AND USES” (BAYER CROPSCIENCE AG, priority 2013, published 2017) are mortality and Emax values, retold here.

Molecules are shown by their SMILES.

The subject of one experiment is Haemonchus contortus. Nature of the experiment: Haemonchus contortus (HAEMCO) larval mortality assay. As to conditions: 120 h; for mortality at 20 ppm: application rate 20 ppm; for Emax at 0.8 ppm / Emax at 4 ppm / Emax at 20 ppm: comparative test, 5 dat, read-out: % Efficacy. How it is done: (§1) Solvent: dimethyl sulfoxide
(§2) To produce a suitable preparation of active compound, 10 mg of active compound are dissolved in 0.5 ml solvent, and the concentrate is diluted with “Ringer's solution” to the desired concentration.
Approximately 40 larvae of the red stomach worm (Haemonchus contortus) are transferred into a test tube containing compound solution.
After 5 days percentage of larval mortality are recorded. 100% efficacy means all larvae are killed, 0% efficacy means no larvae are killed.

A further experiment deals with Cooperia curticei. Nature of the experiment: Cooperia curticei (COOPCU) larval mortality assay. As to conditions: 120 h, after 5 days, read-out: activity (percentage of larval mortality); for mortality at 20 ppm: application rate 20 ppm; for mortality at 4 ppm: application rate 4 ppm. How it is done: as §1, §2
Approximately 40 nematode larvae (Cooperia curticei) are transferred into a test tube containing the compound solution.
After 5 days percentage of larval mortality is recorded. 100% efficacy means all larvae are killed; 0% efficacy means no larvae are killed.

[1] abbreviates: after 5 days, read-out: activity (percentage of larval mortality).

A word on the mortality: it is the percentage killed. In the case of `O=C(NCCc1cccc(-c2cncc(F)c2)c1)c1ccccc1C(F)(F)F` [Example 1-3], the mortality at 20 ppm with Haemonchus contortus (setting [1]) is 90%.

Consider `Cc1nc(Cl)ccc1-c1cccc(CCNC(=O)c2ccccc2C(F)(F)F)c1` [Example 1-5], for which, in the experiment with Haemonchus contortus (setting [1]), the mortality at 20 ppm came to 90%.

As to `Cc1cc(-c2ccc(CCNC(=O)c3ccccc3C(F)(F)F)cc2)ccn1` [Example 1-11], the mortality at 20 ppm in the experiment with Haemonchus contortus (setting [1]) came to 80%.

Regarding `O=C(NCCc1ccc(-c2ccc(C(F)(F)F)nc2)cc1)c1ccccc1C(F)(F)F` [Example 1-12], the figures for the mortality at 20 ppm in the experiment on Haemonchus contortus (setting [1]) and in the experiment with Cooperia curticei were 90% and 100%, respectively.

For `O=C(NCCc1ccc(-c2ccncc2)cc1)c1ccccc1C(F)(F)F` [Example 1-13], in the experiment on Cooperia curticei, the mortality at 20 ppm came to 80%.

For the compound `O=C(NCCc1ccc(-c2cncc(F)c2)cc1)c1ccccc1C(F)(F)F` [Example 1-14], the values for the mortality at 20 ppm in the experiment on Haemonchus contortus (setting [1]) and in the experiment on Cooperia curticei were 90% and 100%, respectively.

`O=C(NCCc1ccc(-c2ccc(Cl)nc2)cc1)c1ccccc1C(F)(F)F` [Example 1-15]: the mortality at 4 ppm with Haemonchus contortus (application rate 4 ppm, after 5 days, read-out: activity (percentage of larval mortality)) was 90%. Besides, the mortality at 20 ppm in the experiment with Cooperia curticei was 100%.

Consider `O=C(NCCc1ccc(-c2ccc(OCC(F)(F)F)nc2)cc1)c1cccnc1C(F)(F)F` [Example 1-18], for which the mortality at 20 ppm with Cooperia curticei amounted to 100%.

In the case of `Cc1ncccc1-c1ccc(CCNC(=O)c2cccnc2C(F)(F)F)cc1` [Example 1-21], in the experiment with Cooperia curticei, the mortality at 20 ppm amounted to 100%.

Take `Cc1occc1-c1ccc(CCNC(=O)c2cccnc2C(F)(F)F)cc1` [Example 1-23]: the mortality at 20 ppm with Cooperia curticei amounted to 80%.

For the compound `O=C(NCCc1ccc(-c2ccnc(Cl)c2)cc1)c1cccnc1C(F)(F)F` [Example 1-26], the mortality at 20 ppm with Cooperia curticei was found to be 90%.

Consider `O=C(NCCc1ccc(-c2ccnc(F)c2)cc1)c1cccnc1C(F)(F)F` [Example 1-27], for which the mortality at 20 ppm in the experiment on Haemonchus contortus (setting [1]) and in the experiment on Cooperia curticei was 80% throughout.

With `O=C(NCCc1ccc(-c2cnccc2Cl)cc1Cl)c1ccccc1C(F)(F)F` [Example 1-31], the mortality at 20 ppm with Cooperia curticei was found to be 100%.

Consider `O=C(NCCc1ccc(-c2ccc(OCC(F)(F)F)nc2)cc1Cl)c1ccccc1C(F)(F)F` [Example 1-32], for which the mortality at 20 ppm in the experiment on Haemonchus contortus (setting [1]) is 90%; in the experiment on Cooperia curticei, 100%.

As to `O=C(NCCc1ccc(-c2ccnc(F)c2)cc1Cl)c1ccccc1C(F)(F)F` [Example 1-34], the mortality at 20 ppm in the experiment on Cooperia curticei is 100%.

Regarding `O=C(NCCc1ccc(-c2ccoc2)cc1Cl)c1ccccc1C(F)(F)F` [Example 1-35], the mortality at 20 ppm in the experiment on Haemonchus contortus (setting [1]) amounted to 100%. For the same compound, in the experiment with Haemonchus contortus, the Emax at 0.8 ppm came to 80%, the Emax at 4 ppm amounted to 90% and the Emax at 20 ppm was 100%. For the same compound, the mortality at 20 ppm with Cooperia curticei amounted to 100%.

Regarding `O=C(NCCc1ccc(-c2ccncc2)cc1Cl)c1ccccc1C(F)(F)F` [Example 1-36], the mortality at 20 ppm in the experiment on Cooperia curticei came out at 80%.

On to `O=C(NCCc1ccc(-c2ccc(C(F)(F)F)nc2)cc1Cl)c1ccccc1C(F)(F)F` [Example 1-38], for which, in the experiment on Haemonchus contortus (setting [1]), the mortality at 20 ppm was 100%. In addition, in the experiment on Haemonchus contortus, the Emax at 0.8 ppm stood at 100%, the Emax at 4 ppm was 100% and the Emax at 20 ppm was 100%. Further, the mortality at 20 ppm with Cooperia curticei came out at 100%.

On to `Cc1occc1-c1ccc(CCNC(=O)c2ccccc2C(F)(F)F)c(Cl)c1` [Example 1-40], for which the mortality at 20 ppm in the experiment on Haemonchus contortus (setting [1]) and with Cooperia curticei was 100% throughout.

With `O=C(NCCc1ccc(-c2cccc(Cl)n2)cc1Cl)c1ccccc1C(F)(F)F` [Example 1-41], the mortality at 20 ppm in the experiment on Haemonchus contortus (setting [1]) is 90%; with Cooperia curticei it was 100%.

Take `CC(C)Oc1ccc(-c2ccc(CCNC(=O)c3ccccc3C(F)(F)F)c(Cl)c2)cn1` [Example 1-43]: the mortality at 20 ppm in the experiment on Haemonchus contortus (setting [1]) stood at 100%. In the experiment on Haemonchus contortus, the Emax at 0.8 ppm came to 100%, the Emax at 4 ppm stood at 100% and the Emax at 20 ppm was 100%. Also, the mortality at 20 ppm in the experiment on Cooperia curticei worked out at 100%.

`O=C(NCCc1ccc(-c2cc(Cl)nc(Cl)c2)cc1Cl)c1ccccc1C(F)(F)F` [Example 1-46]: the mortality at 20 ppm in the experiment on Cooperia curticei came out at 100%.

Turning to `Cc1nc(C)c(-c2ccc(CCNC(=O)c3ccccc3C(F)(F)F)c(Cl)c2)s1` [Example 1-50], in the experiment on Cooperia curticei, the mortality at 20 ppm was 90%.

As for `O=C(NCCc1ccc(-c2ccnc(F)c2)cc1)c1ccccc1C(F)(F)F` [Example 1-51], the mortality at 20 ppm in the experiment on Cooperia curticei stood at 100%.

For the compound `O=C(NCCc1ccc(-c2ccoc2)cc1)c1ccccc1C(F)(F)F` [Example 1-52], in the experiment on Cooperia curticei, the mortality at 20 ppm turned out to be 100%.

On to `O=C(NCCc1ccc(-c2cccc(Cl)n2)cc1)c1ccccc1C(F)(F)F` [Example 1-55], for which, in the experiment on Cooperia curticei, the mortality at 20 ppm was found to be 100%.

Consider `O=C(NCCc1ccc(-c2cccnc2Cl)cc1)c1ccccc1C(F)(F)F` [Example 1-56], for which the mortality at 20 ppm with Haemonchus contortus (setting [1]) and with Cooperia curticei was 80% in each case.

On to `O=C(NCCc1ccc(-c2cccnc2)cc1)c1ccccc1C(F)(F)F` [Example 1-57], for which the values for the mortality at 20 ppm with Haemonchus contortus (setting [1]) and in the experiment with Cooperia curticei were 80% and 100%, respectively.

With `O=C(NCCc1ccc(-c2ccc(OCC(F)(F)F)nc2)cc1)c1ccccc1C(F)(F)F` [Example 1-58], the mortality at 20 ppm amounted to 80% in the experiment with Haemonchus contortus (setting [1]) and 100% with Cooperia curticei.

For `Cc1occc1-c1ccc(CCNC(=O)c2ccccc2C(F)(F)F)cc1` [Example 1-59], the mortality at 20 ppm in the experiment on Cooperia curticei is 100%.

For `Cn1cc(-c2ccc(CCNC(=O)c3ccccc3C(F)(F)F)cc2)cn1` [Example 1-60], the values for the mortality at 20 ppm with Haemonchus contortus (setting [1]) and in the experiment on Cooperia curticei were 80% and 100%, respectively.

Regarding `O=C(NCCc1ccc(-c2ccc(F)nc2)cc1)c1ccccc1C(F)(F)F` [Example 1-62], the mortality at 20 ppm in the experiment on Haemonchus contortus (setting [1]) was 100%. For the same compound, in the experiment with Haemonchus contortus, the Emax at 0.8 ppm turned out to be 80%, the Emax at 4 ppm was determined as 90% and the Emax at 20 ppm turned out to be 100%. In addition, in the experiment with Cooperia curticei, the mortality at 20 ppm stood at 100%.

For `O=C(NCCc1ccc(-c2ccnc(Cl)c2)cc1)c1ccccc1C(F)(F)F` [Example 1-64], the mortality at 20 ppm in the experiment on Haemonchus contortus (setting [1]) worked out at 80%; in the experiment with Cooperia curticei it was 100%.

Regarding `O=C(NCCc1ccc(-c2ccnc(Cl)c2)cc1Cl)c1ccccc1C(F)(F)F` [Example 1-65], in the experiment on Cooperia curticei, the mortality at 20 ppm worked out at 90%.

Take `O=C(NCC(F)(F)c1ccc(-c2ccc(Cl)nc2)cc1Cl)c1cccnc1C(F)(F)F` [Example 1-67]: in the experiment on Haemonchus contortus (setting [1]), the mortality at 20 ppm amounted to 90%. Moreover, the mortality at 4 ppm with Cooperia curticei was 90%.

Consider `O=C(NCC(F)c1ccc(-c2ccc(C(F)(F)F)nc2)cc1Cl)c1cccnc1C(F)(F)F` (stereo not drawn) [Example 1-71], for which the mortality at 20 ppm with Haemonchus contortus (setting [1]) amounted to 90%; in the experiment with Cooperia curticei it was 100%.

With `CC(C)Oc1ccc(-c2ccc(C(F)(F)CNC(=O)c3ccccc3C(F)(F)F)c(Cl)c2)cn1` [Example 1-91], the mortality at 20 ppm in the experiment on Cooperia curticei amounted to 100%.

Turning to `CC(F)(CNC(=O)c1c(F)cccc1F)c1ccc(-c2cncc(F)c2)cc1Cl` (stereo not drawn) [Example 1-103], the mortality at 20 ppm in the experiment with Haemonchus contortus (setting [1]) came to 100%.

For the compound `O=C(NCC(F)(F)c1ccc(-c2ccc(C(F)(F)F)nc2)cc1F)c1ccccc1C(F)(F)F` [Example 1-105], in the experiment on Cooperia curticei, the mortality at 20 ppm worked out at 90%.

As to `CN(C)c1ccc(-c2ccc(C(F)(F)CNC(=O)c3ccccc3C(F)(F)F)c(C(F)(F)F)c2)cn1` [Example 1-125], the mortality at 20 ppm with Cooperia curticei was 80%.

On to `CN(C)c1ncc(-c2ccc(C(F)(F)CNC(=O)c3ccccc3C(F)(F)F)c(F)c2)cn1` [Example 1-146], for which, in the experiment with Cooperia curticei, the mortality at 20 ppm was 100%.

For the compound `CN(C)c1ncc(-c2ccc(C(F)(F)CNC(=O)c3ccccc3C(F)(F)F)c(C(F)(F)F)c2)cn1` [Example 1-149], the mortality at 4 ppm in the experiment with Cooperia curticei was 90%.
